# Values joined by “and” are separate entries in the source; they are usually repeats but may differ in a detail not shown here. Equal entries are not always repeated. Where two headings read alike, the source gives them in different places.
# Legend:
# [1] = target: T1, human recombinant adrenergic α2B receptor (Homo sapiens, UniProt P18089); experiment: Radioligand binding, adrenergic α2B ([3H]Rauwolscine)
# T1 construct: expressed in transfected cells; host or cells: CHO-K1
# T1 sequence (P18089 1-450): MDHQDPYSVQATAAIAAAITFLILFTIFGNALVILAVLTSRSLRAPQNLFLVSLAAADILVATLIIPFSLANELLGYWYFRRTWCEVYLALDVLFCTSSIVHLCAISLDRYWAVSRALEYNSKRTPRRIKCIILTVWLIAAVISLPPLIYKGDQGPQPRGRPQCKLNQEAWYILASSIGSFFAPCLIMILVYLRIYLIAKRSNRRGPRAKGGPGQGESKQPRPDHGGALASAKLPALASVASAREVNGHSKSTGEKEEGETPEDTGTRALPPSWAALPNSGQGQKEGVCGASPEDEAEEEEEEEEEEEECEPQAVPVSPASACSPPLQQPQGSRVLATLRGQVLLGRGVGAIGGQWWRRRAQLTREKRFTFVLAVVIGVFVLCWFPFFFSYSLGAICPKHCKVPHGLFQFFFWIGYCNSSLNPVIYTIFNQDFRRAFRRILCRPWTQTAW
# Method in brief: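 Values are percent inhibition of specific radioligand binding. The receptor, expressed in CHO-K1 cells, was exposed to 2.5 nM [3H]Rauwolscine at 25° C for 60 min, with 10 μM Prazosin marking non-specific binding.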
# [2] = target: T2, human recombinant adrenergic α2A receptor (Homo sapiens, UniProt P08913); experiment: Radioligand binding, adrenergic α2A ([3H]MK-912)
# T2 construct: expressed in transfected cells; host or cells: insect Sf9 cells
# T2 sequence (P08913 1-465): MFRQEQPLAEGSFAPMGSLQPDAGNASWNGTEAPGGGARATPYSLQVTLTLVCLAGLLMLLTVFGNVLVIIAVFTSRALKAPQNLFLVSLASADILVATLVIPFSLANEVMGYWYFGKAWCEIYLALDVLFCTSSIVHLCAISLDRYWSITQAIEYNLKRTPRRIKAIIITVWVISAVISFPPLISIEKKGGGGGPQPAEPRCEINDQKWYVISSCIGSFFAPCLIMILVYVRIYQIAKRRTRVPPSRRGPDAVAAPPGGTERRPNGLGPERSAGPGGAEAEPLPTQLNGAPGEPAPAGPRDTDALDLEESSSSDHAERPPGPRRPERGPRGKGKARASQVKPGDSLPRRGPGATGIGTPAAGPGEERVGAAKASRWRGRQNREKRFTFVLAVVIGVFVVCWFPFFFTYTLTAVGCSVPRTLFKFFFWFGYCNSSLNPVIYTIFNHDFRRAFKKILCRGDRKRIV
# Method in brief: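 Sf9 membranes, 1 nM [3H]MK-912, 60 min, 25 °C, Tris-HCl pH 7.4/MgCl2/EDTA buffer. NSB: 10 μM WB-4101. Filtration, counting; % inhibition of specific binding.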
# [3] = target: T3, rat adrenergic α1B receptor (Rattus norvegicus, UniProt P15823); experiment: Radioligand binding, adrenergic α1B ([3H]Prazosin)
# T3 construct: rat adrenergic α1B receptor obtained from Wistar Rat liver; from tissue; host or cells: Wistar rat liver
# T3 sequence (P15823 1-515): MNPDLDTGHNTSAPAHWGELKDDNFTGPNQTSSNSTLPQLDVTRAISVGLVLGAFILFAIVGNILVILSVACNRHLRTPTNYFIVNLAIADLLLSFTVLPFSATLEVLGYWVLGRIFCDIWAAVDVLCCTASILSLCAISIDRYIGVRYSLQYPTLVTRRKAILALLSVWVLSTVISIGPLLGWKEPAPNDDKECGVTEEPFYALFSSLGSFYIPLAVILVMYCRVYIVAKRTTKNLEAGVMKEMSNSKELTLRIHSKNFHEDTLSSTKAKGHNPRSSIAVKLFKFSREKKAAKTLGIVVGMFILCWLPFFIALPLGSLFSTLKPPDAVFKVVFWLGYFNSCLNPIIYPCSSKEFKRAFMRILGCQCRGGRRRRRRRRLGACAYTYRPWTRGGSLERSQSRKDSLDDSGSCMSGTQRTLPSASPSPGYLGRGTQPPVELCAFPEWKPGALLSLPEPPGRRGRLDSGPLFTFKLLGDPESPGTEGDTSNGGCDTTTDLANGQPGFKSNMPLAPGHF
# Method in brief: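 Rat α1B receptor from Wistar rat liver was incubated with 0.25 nM [3H]prazosin for 60 min at 25 °C in 50 mM Tris-HCl, pH 7.4, 0.5 mM EDTA. Non-specific binding was defined with 10 μM phentolamine. Bound radioligand was measured by filtration and counting, reported as percent inhibition of specific binding.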
# [4] = target: T4, human recombinant adrenergic α1D receptor (Homo sapiens, UniProt P25100); experiment: Radioligand binding, adrenergic α1D ([3H]Prazosin)
# T4 construct: expressed in transfected cells; host or cells: HEK-293
# T4 sequence (P25100 1-572): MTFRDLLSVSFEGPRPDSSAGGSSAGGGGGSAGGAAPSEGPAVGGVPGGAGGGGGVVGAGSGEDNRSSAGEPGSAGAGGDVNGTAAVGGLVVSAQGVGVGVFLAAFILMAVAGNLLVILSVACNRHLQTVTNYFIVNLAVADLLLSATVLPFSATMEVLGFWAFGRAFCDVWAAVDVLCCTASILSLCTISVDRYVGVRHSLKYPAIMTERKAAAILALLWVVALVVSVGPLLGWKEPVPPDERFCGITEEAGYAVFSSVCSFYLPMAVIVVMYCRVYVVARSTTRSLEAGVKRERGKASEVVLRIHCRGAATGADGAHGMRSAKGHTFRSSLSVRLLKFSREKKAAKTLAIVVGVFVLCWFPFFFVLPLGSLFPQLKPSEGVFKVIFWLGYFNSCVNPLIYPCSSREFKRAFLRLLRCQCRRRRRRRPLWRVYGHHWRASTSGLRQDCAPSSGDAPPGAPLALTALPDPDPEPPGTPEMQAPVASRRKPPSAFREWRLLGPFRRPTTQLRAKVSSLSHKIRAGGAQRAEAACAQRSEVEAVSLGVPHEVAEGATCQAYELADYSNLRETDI
# Procedure: Compounds were incubated with 0.6 nM [3H]Prazosin for 60 min at 25° C. Non-specific binding was estimated in the presence of 10 μM phentolamine. Receptor proteins were filtered and washed, the filters were then counted to determine [3H]Prazosin specifically bound. […] Biochemical assay results are presented as the percent inhibition of specific binding in Table B1.
# [5] = read-out: Percentage inhibition of ligand binding, Adrenergic α2B (0.1 μM), compound at 0.1 μM, [3H]Rauwolscine, repeat datapoints each shown
# [6] = read-out: Percentage inhibition of ligand binding, Adrenergic α1B (0.1 μM), compound at 0.1 μM, [3H]Prazosin, repeat datapoints each shown
# [7] = read-out: Percentage inhibition of ligand binding, Adrenergic α1D (0.1 μM), compound at 0.1 μM, [3H]Prazosin, repeat datapoints each shown
# [8] = read-out: Percentage inhibition of ligand binding, Adrenergic α2A (0.1 μM), compound at 0.1 μM, [3H]MK-912, repeat datapoints each shown
# [9] = 0.1 μM compound, read-out: Percentage inhibition of ligand binding, Adrenergic α2B
# [10] = 0.1 μM compound, read-out: Percentage inhibition of ligand binding, Adrenergic α2A
# [11] = 0.1 μM compound, read-out: Percentage inhibition of ligand binding, Adrenergic α1B
# [12] = 0.1 μM compound, read-out: Percentage inhibition of ligand binding, Adrenergic α1D
# [13] = compound at 0.1 μM, [3H]MK-912, repeat assays, each datapoint shown, read-out: Percentage inhibition of ligand binding, Adrenergic α2A
# [14] = compound at 0.1 μM, [3H]Prazosin, repeat assays, each datapoint shown, read-out: Percentage inhibition of ligand binding, Adrenergic α1B
# [15] = compound at 0.1 μM, [3H]Prazosin, repeat assays, each datapoint shown, read-out: Percentage inhibition of ligand binding, Adrenergic α1D
"inhibition at 0.1 µM [1, 5] [%]","inhibition at 0.1 µM [3, 6] [%]","inhibition at 0.1 µM [4, 7] [%]","inhibition at 0.1 µM [2, 8] [%]","inhibition at 0.1 µM [1, 9] [%]","inhibition at 0.1 µM [2, 10] [%]","inhibition at 0.1 µM [3, 11] [%]","inhibition at 0.1 µM [4, 12] [%]",SMILES,other results
105,60,48,,,,,,C/C(=C\n1c2c(c3cc(C)cc(C)c31)CN(C)CC2)c1ccc(C)nc1 [compound 188],"Percentage inhibition of ligand binding, Adrenergic α2A (0.1 μM) ([2]; compound at 0.1 μM, [3H]MK-912, repeat datapoints each shown, 0.1 µM): 66% and 90%; inhibition at 0.03 µM ([2]; read-out: Percentage inhibition of ligand binding, Adrenergic α2A (0.03 μM), compound at 0.03 μM, [3H]MK-912, repeat datapoints each shown): 35%"
77,77,46,30,,,,,Cc1ccc2c(c1)c1c(n2CCc2cncc(Cl)c2)CCN(C)CC1 [compound 92],
,,,,99,67,63,31,"Cc1ccc2c(c1)c1c(n2CNc2ccccc2)CCN(C)C1 [compound 324, (2,8-dimethyl-1,2,3,4-tetrahydro-pyrido[4,3-b]indol-5-ylmethyl)-phenyl-amine]",
,,,,86,94,41,51,"Cc1ccc2c(c1)c1c(n2CCc2ccc3c(c2)CCCC3)CCN(C)C1 [compound 332, 2,8-dimethyl-5-[2-(5,6,7,8-tetrahydro-naphthalen-2-yl)-ethyl]-2,3,4,5-tetrahydro-1H-pyrido[4,3-b]indole]",
,,,,104,58,13,23,C/C(=C\n1c2c(c3cc(C)ccc31)CN(C)CC2)c1cncc2ccccc12 [compound 292],
,,,,,,,,CN1CCc2c(c3cc(Cl)ccc3n2CC(C)(O)c2ccncc2)C1 (centres unmarked) [compound 1],"inhibition at 0.1 µM ([1]; compound at 0.1 μM, [3H]Rauwolscine, repeat assays, each datapoint shown, read-out: Percentage inhibition of ligand binding, Adrenergic α2B): 74%; inhibition at 0.1 µM [2, 13]: 6%; inhibition at 0.1 µM [3, 14]: 32%; inhibition at 0.1 µM [4, 15]: 16%"
82,30,46,12,,,,,COCc1ccc(/C(C)=C/n2c3c(c4cc(C)ccc42)CN(C)CC3)cn1 [compound 126],
94,95,55,96,,,,,CN1CCc2c(c3ccccc3n2CC(C)(O)c2ccncc2)C1 (centres unmarked) [II-171],
,,,,,,,,"Cc1ccc2c(c1)c1c(n2CC(C)c2ccc(C)nc2)CCN(C)C1 (single isomer, unassigned) [289b]","Percentage inhibition of ligand binding, Adrenergic α2B ([1]; 0.1 μM compound): 54%; Percentage inhibition of ligand binding, Adrenergic α2A ([2]; 0.1 μM compound, 0.1 µM): 53%; Percentage inhibition of ligand binding, Adrenergic α1B ([3]; 0.1 μM compound, 0.1 µM): 12%; Percentage inhibition of ligand binding, Adrenergic α1D ([4]; 0.1 μM compound, 0.1 µM): −2%"
88,6,44,16,,,,,C=C(Cn1c2c(c3cc(C)ccc31)CN(C)CC2)c1ccncc1 [compound 121],
,,,,27,68,28,25,"C=CCC1(C)CN(C)Cc2c1n(/C=C(\C)c1ccc(F)cc1)c1ccc(C)cc21 (centres unmarked) [compound 274, 4-allyl-5-[2-(4-fluoro-phenyl)-propenyl]-2,4,8-trimethyl-2,3,4,5-tetrahydro-1H-pyrido[4,3-b]indole]",
,,,,,,,,CCc1ccc(CCn2c3c(c4cc(C)ccc42)CN(C)CC3)cn1 [compound 89],"inhibition at 0.03 µM ([1]; compound at 0.03 μM, [3H]Rauwolscine, repeat assays, each datapoint shown, read-out: Percentage inhibition of ligand binding, Adrenergic α2B): 25%; Percentage inhibition of ligand binding, Adrenergic α2B ([1]; compound at 0.1 μM, [3H]Rauwolscine, repeat assays, each datapoint shown, 0.1 µM): 57% and 79%; Ki ([1]; read-out: Ki α2B): 32 nM; inhibition at 0.1 µM [2, 13]: 23%; inhibition at 0.1 µM [3, 14]: 79%; inhibition at 0.1 µM [4, 15]: 68%"
60,14,-6,14,,,,,Cc1ccc(CCn2c3c(c4ccc(C(F)(F)F)cc42)CN(C)CC3)cn1 [compound 119],
,,,,94,90,57,39,CSc1cccc(/C(C)=C/n2c3c(c4cc(C)ccc42)CN(C)CC3)c1 [compound 268],
63,19,12,-2,,,,,C/C(=C\n1c2c(c3cc(C)cnc31)CN(C)CC2)c1ccncc1 [compound 124],
72,73,47,20,,,,,COc1ccc2c(c1)c1c(n2/C=C(/C)c2ccncc2)CCN(C)C1 [compound 100],
,,,,73,73,92,53,"Cc1ccc2c(c1)c1c(n2C#Cc2cccc3cnccc23)CCN(C)C1 [compound 313, 5-isoquinolin-5-ylethynyl-2,8-dimethyl-2,3,4,5-tetrahydro-1H-pyrido[4,3-b]indole]",

# — patent US8791132B2, “Compounds and methods for treatment of hypertension” (Medivation Technologies, Inc., priority 2011, dated 2014)
